Data as given in patent US20230257703A1, “NANOSCALE POLYMERIC MICELLAR SCAFFOLDS FOR RAPID AND EFFICIENT ANTIBODY PRODUCTION” (Iowa State University Research Foundation, Inc., priority 2020, published 2023).

How the values were obtained:
[1] = system: splenic B cells of Ighel Tg mice (BCRs specific to HEL); assay: CFSE B cell proliferation and viability, splenic cells of Ighel Tg mice; type: cell-based; settings: 10 µg/mL, 4 days
[2] = system: murine splenic B cells (CD19+); assay: Nur77 expression in B cells by flow cytometry (BCR engagement); type: cell-based, mice; settings: micelle-Ag 10 µg/mL each component, LPS 0.5 µg/mL, anti-IgM F(ab′)2 10 µg/mL
Description: B cell proliferation was detected using in vitro labeling of cells with CFSE and analysis by flow cytometry. Distinct generations of proliferating cells can be monitored by dilutions of CFSE stain on the cells as viewed on the flow cytometry plots. For the flow cytometry procedure, the cells were transferred into polystyrene FACS tubes and labelled with Zombie Aqua dye for tracking viable cells post-stimulation using manufacturer’s instructions. […] For intracellular staining of Nur77 antibody, following surface staining, cells were washed with PBS and then fixed with 4% p-formaldehyde. After washing the cells again with PBS, 0.1% Triton X-100 was used for permeabilization, and following that, Nur77 Ab at a 1:50 dilution was used to stain the cells. After the staining, cells were washed in FACS buffer to remove excess dye and samples were fixed prior to analysis. The flow cytometry data was collected on FACSCanto II (BD Bioscience, NJ) and analyzed using FlowJo (FlowJo LLC, Ashland, CA).

Substance | B cell proliferation (CFSE^lo peaks) [1] | Nur77 induction [2]
hen egg white lysozyme [HEL] | small peak with some proliferation | –
lipopolysaccharide [LPS] | – | did not trigger Nur77 induction
